The assay addresses T1, human vasopressin V2 receptor subtype (Homo sapiens, UniProt P30518).
T1 construct: host or cells: CHO cells (pZeoSV vector)
Nature of the assay: Vasopressin binding in Chinese Hamster Ovary cell membranes expressing human vasopressin V2 subtype receptors. Conditions: 100 nM, CHO cell membranes, [3H]arginine vasopressin, values without parentheses. The essentials:
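Radioligand displacement on membranes from CHO cells stably expressing human V2 receptor, 25 to 50 μg protein/well, in 50 mM Tris-HCl pH 7.4 with MgCl2, BSA and protease inhibitors. [^3H]arginine vasopressin (8 nM working solution) incubated 60 min at room temperature; bound label measured by filtration and scintillation counting.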

T1 sequence (P30518 whole entry): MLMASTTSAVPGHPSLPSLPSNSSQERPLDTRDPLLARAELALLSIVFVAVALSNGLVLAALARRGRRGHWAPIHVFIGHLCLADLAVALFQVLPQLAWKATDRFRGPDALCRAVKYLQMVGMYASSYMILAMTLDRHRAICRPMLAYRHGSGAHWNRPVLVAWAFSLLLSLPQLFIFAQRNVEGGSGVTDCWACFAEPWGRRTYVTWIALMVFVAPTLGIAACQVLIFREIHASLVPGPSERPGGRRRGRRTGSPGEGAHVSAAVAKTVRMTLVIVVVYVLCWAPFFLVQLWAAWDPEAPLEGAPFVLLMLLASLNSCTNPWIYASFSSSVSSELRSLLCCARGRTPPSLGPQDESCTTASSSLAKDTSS

By inhibition is commonly meant the drop in the measured response relative to a control, in per cent. Turning to `Cc1ccccc1-c1ccc(C(=O)N2Cc3ccc(C(=O)NCCCn4ccnc4)n3Cc3ccccc32)cc1C` [Example 124, 10-[(2,2′-Dimethyl[1,1′-biphenyl]-4-yl)carbonyl]-N-[3-(1H-imidazol-1-yl)propyl]-10,11-dihydro-5H-pyrrolo[2,1-c][1,4]benzodiazepine-3-carboxamide], the inhibition at 0.1 µM turned out to be 21%.

For the origin of these results see US7109193B2, “Tricyclic diazepines tocolytic oxytocin receptor antagonists” (Wyeth, priority 2001, dated 2006).
